Patent US20250144083A1, “METHODS AND COMPOSITIONS FOR TREATING CANCER IN TAXANE-RESISTANT PATIENTS” (MODRA PHARMACEUTICALS B.V., priority 2022, published 2025)
“And” between values parts separate entries of the source, which are not always exact repeats. Equal entries are not always repeated. “Also recorded” adds a separate entry of the source. Where two headings read alike, the source gives them in different places.

Tests used:
Assay type in all cases: cell-based
[1] = test system: DU-145 DOC10 prostate cancer cells; assay: 3D clonogenic assay, docetaxel-resistant DU-145 DOC10; settings: for Relative Resistance to cabazitaxel / Relative Resistance to docetaxel: compared to parental DU-145 cells without ritonavir; for IC50: Homo sapiens; for Relative Resist to docetaxel: compared to parental DU-145 cells without elacridar
Experimental: (§1) For the single agent efficacy experiment, a master stock solution of cabazitaxel was prepared by dissolving compound powder in DMSO at a concentration of 10 mM. From this a working stock solution of 0.1 mM (330-fold the highest test concentration) was prepared. Small aliquots of this solution were stored at −20° C. On each day of an experiment, a frozen aliquot of the working stock solution was thawed and stored at room temperature prior to and during treatment. First, serial half-log dilutions of the working stock solution were prepared in DMSO. These dilutions were then diluted 1:22 into cell culture medium in an intermediate dilution plate. Finally, 10 μl taken from the intermediate dilution plate were transferred to 140 μl/well of the final assay plate. Thus, the DMSO working stock was diluted 1:330, and the DMSO concentration in the assay was 0.3% v/v.
(§2) For combination experiments, working stock solutions of docetaxel, ritonavir, elacridar, and cabazitaxel were prepared in DMSO at concentrations of 660-fold the highest test concentration used. Small aliquots of this stock solution were stored at −20° C. On each day of an experiment, a frozen aliquot of the working stock solutions was thawed and stored at room temperature prior to and during treatment. First, 1:2 dilutions of 660-fold concentrated working stocks were done in DMSO (in case of monotherapy controls), or equal amounts of the compound working stocks were mixed (in case of drug combinations). Then, different dilutions of these 330-fold concentrated solutions were done in DMSO to give a 8*2 matrix combination layout. The DMSO dilutions were further diluted 1:22 into cell culture medium (IMDM, supplemented with 20% (v/v) fetal calf serum, 50 μg/ml gentamicin) in an intermediate dilution plate. Finally, 10 μl taken from the intermediate dilution plate were transferred to 140 μl of cells and medium per well of the final assay plate. Thus, the DMSO dilutions used for the mono- and the combination-treatment were diluted 1:330, and the DMSO concentration in the assay was 0.3% v/v.
(§3) DU-145 DOC10 was generated from DU-145 and 22Rv1 DOC8 was generated from 22Rv1. 22Rv1 was obtained from American Type Culture Collection (ATCC, Rockville, MD, USA), whereas DU-145 was obtained from National Cancer Institute (NCI, Bethesda, MD, USA).
(§4) Tumour cell lines were grown at 37° C. in a humidified atmosphere with 5% CO2 in RPMI 1640 medium (Biochrom) supplemented with 10% (v/v) fetal calf serum and 50 μg/ml gentamicin. Docetaxel resistant sublines were cultured in the presence of 8 nM (22Rv1) or 10 nM docetaxel (DU-145). The cells were routinely passaged once or twice weekly and maintained in culture for up to 20 passages. For the assay, cells were harvested using TrypLE and the percentage of viable cells was determined by the CASY TT cell counter (OMNI Life Science).
(§5) The clonogenic assay was carried out in a 96 well plate format using ultra low attachment plates. For each test, cells were prepared and assay plates were prepared as follows: each test well contained a layer of semi-solid medium with tumour cells (50 μl), and a second layer of medium supernatant with or without test compound (100 μl). The cell layer consisted of 2·10^3 to 3·10^3 tumour cells per well, which were seeded in 50 μl/well cell culture medium (IMDM, supplemented with 20% (v/v) fetal calf serum, 50 μg/ml gentamicin, and 0.4% (w/v) agar). After 24 h, the soft-agar layer was covered with 90 μl of the same culture medium without agar, and 10 μl of control medium or test compound after serial dilution in DMSO and transfer in cell culture medium were added, and left on the cells for the duration of the experiment (continuous exposure, 100 μl drug overlay). Every plate included six untreated control wells and drug-treated groups. Duplicate values were obtained by testing single values per condition on one plate. […]

[2] = test system: 22Rv1 DOC8 prostate cancer cells; assay: 3D clonogenic assay, docetaxel-resistant 22Rv1 DOC8; settings: for IC50: Homo sapiens; for Relative Resist to docetaxel: compared to parental 22Rv1 cells without elacridar
Experimental: as §1, §2, §3, §4, §5

[3] = test system: DU-145 prostate cancer cells; assay: 3D clonogenic assay, parental DU-145; settings: for IC50: Homo sapiens
Experimental: as §1, §2, §3, §4, §5

[4] = test system: 22Rv1 prostate cancer cells; assay: 3D clonogenic assay, parental 22Rv1; settings: for IC50: Homo sapiens
Experimental: as §1
as §2, with “Finally, 10 μl taken from the intermediate dilution plate were transferred to 140 μl of cells and medium per well of the final assay plate. Thus, the DMSO dilutions used for the mono- and the combination-treatment were diluted 1:330, and the DMSO concentration in the assay was 0.3% v/v.” left out
Tumour cell lines were grown at 37° C. in a humidified atmosphere with 5% CO2 in RPMI 1640 medium (Biochrom) supplemented with 10% (v/v) fetal calf serum and 50 μg/ml gentamicin. […] For the assay, cells were harvested using TrypLE and the percentage of viable cells was determined by the CASY TT cell counter (OMNI Life Science). […]

[5] = test system: DU-145 DOC10 prostate cancer cells; assay: 2D culture docetaxel resistance, DU-145 DOC10 vs DU-145; settings: 2D setup, DU-145 cells exposed to docetaxel for 3 months
[6] = test system: 22Rv1 DOC8 prostate cancer cells; assay: 2D culture docetaxel resistance, 22Rv1 DOC8 vs 22Rv1; settings: 2D setup, 22Rv1 cells exposed to docetaxel for 3 months

SMILES: CC(C)c1nc(CN(C)C(=O)N[C@H](C(=O)N[C@@H](Cc2ccccc2)C[C@H](O)[C@H](Cc2ccccc2)NC(=O)OCc2cncs2)C(C)C)cs1 [ritonavir]
- reversal of cabazitaxel resistance ([1]; DU145 DOC10, by ritonavir): reverses cabazitaxel resistance
- ritonavir concentration that inhibits growth ([1]; DU145 DOC10, ritonavir alone): ≥ 10 µM
- reversal of docetaxel resistance ([1]; DU-145 DOC10, by ritonavir): reverses docetaxel resistance
- tumour colony formation ([2]; 100 μM ritonavir, cell line not given): inhibited tumour colony formation completely
- reversal of cabazitaxel resistance ([2]; 22Rv1 DOC8, by ritonavir): completely reverted; also recorded: reverses cabazitaxel resistance
- reversal of docetaxel resistance ([2]; 22Rv1 DOC8, by ritonavir): reverses docetaxel resistance
- ritonavir concentration that inhibits growth ([3]; DU145, ritonavir alone): ≥ 10 µM

SMILES: CO[C@H]1C(=O)[C@]2(C)[C@@H](OC)C[C@H]3OC[C@@]3(OC(C)=O)[C@H]2[C@H](OC(=O)c2ccccc2)[C@]2(O)C[C@H](OC(=O)[C@H](O)[C@@H](NC(=O)OC(C)(C)C)c3ccccc3)C(C)=C1C2(C)C [cabazitaxel]
- tumour cell growth inhibition, monotherapy ([4]; 22Rv1): inhibited tumour cell growth in a concentration dependent manner
- IC50 ([4]; 22Rv1, without ritonavir, read-out: IC50 value of cabazitaxel): 0.7 nM
- Relative Resistance to cabazitaxel ([1]; DU145 DOC10, 10 μM ritonavir): 1
- Relative Resistance to cabazitaxel ([1]; DU145 DOC10 without ritonavir): 2.5
- tumour cell growth inhibition, monotherapy ([1]; DU-145 DOC10): inhibited tumour cell growth in a concentration dependent manner
- IC50 ([1]; DU-145, DU145 DOC10, 10 μM ritonavir, read-out: IC50 value of cabazitaxel): 0.6 nM
- IC50 ([1]; DU-145, DU145 DOC10, without ritonavir, read-out: IC50 value of cabazitaxel): 1.5 nM
- shift of the IC50 value of cabazitaxel, monotherapy ([1]; printed: DU-145 DOC8 vs. DU-145): 2.7 fold
- tumour cell growth inhibition, monotherapy ([2]; 22Rv1 DOC8): inhibited tumour cell growth in a concentration dependent manner
- Relative Resistance to cabazitaxel ([2]; 22Rv1 DOC8 without ritonavir, compared to parental 22Rv1 cells without ritonavir): 14
- IC50 ([2]; 22Rv1, 22Rv1 DOC8, 10 μM ritonavir, read-out: IC50 value of cabazitaxel): 5.2 nM
- IC50 ([2]; 22Rv1, 22Rv1 DOC8, 32 μM ritonavir, read-out: IC50 value of cabazitaxel): 0.7 nM
- IC50 ([2]; 22Rv1, 22Rv1 DOC8, without ritonavir, read-out: IC50 value of cabazitaxel): 9.5 nM
- fold higher relative IC50 value of cabazitaxel, monotherapy ([2]; printed: for 22Rv1 compared to 22Rv1): 14.5 fold
- tumour cell growth inhibition, monotherapy ([3]; DU-145): inhibited tumour cell growth in a concentration dependent manner
- IC50 ([3]; DU-145, DU145, 10 μM ritonavir, read-out: IC50 value of cabazitaxel): 0.3 nM
- IC50 ([3]; DU-145, DU145, without ritonavir, read-out: IC50 value of cabazitaxel): 0.6 nM

SMILES: CC(=O)O[C@@]12CO[C@@H]1C[C@H](O)[C@@]1(C)C(=O)[C@H](O)C3=C(C)[C@@H](OC(=O)[C@H](O)[C@@H](NC(=O)OC(C)(C)C)c4ccccc4)C[C@@](O)([C@@H](OC(=O)c4ccccc4)[C@H]21)C3(C)C [docetaxel]
- resistance to docetaxel: fold increase in IC50 value compared to parental, untreated cells [5]: ~20 fold and 21 fold and 22 fold
- IC50 ([4]; 22Rv1, without elacridar, from previously performed experiment, read-out: IC50 value of docetaxel): 1.3 nM
- Relative Resist to docetaxel ([1]; DU-145 DOC10, 0.3 μM elacridar): 1.7
- Relative Resist to docetaxel ([1]; DU-145 DOC10, 1 μM elacridar): 1.5
- Relative Resistance to docetaxel ([1]; DU-145 DOC10, 1 μM ritonavir): 3.0
- fold lower IC50 value (increase in sensitivity to docetaxel) ([1]; DU-145 DOC10, 10 μM ritonavir): 3.4 fold
- Relative Resistance to docetaxel ([1]; DU-145 DOC10, 10 μM ritonavir): 1.0
- fold lower IC50 value (increase in sensitivity) ([1]; DU-145 DOC10, 10 μM ritonavir, cabazitaxel experiment (FIG. 10)): 2.5 fold
- Relative Resist to docetaxel ([1]; DU-145 DOC10 without elacridar): 11
- Relative Resistance to docetaxel ([1]; DU-145 DOC10 without ritonavir, 3D setup): 3.3
- IC50 ([1]; DU-145, DU-145 DOC10, 0.3 μM elacridar, read-out: IC50 value of docetaxel): 1.9 nM
- IC50 ([1]; DU-145, DU-145 DOC10, 1 μM elacridar, read-out: IC50 value of docetaxel): 1.6 nM
- IC50 ([1]; DU-145, DU-145 DOC10, 1 μM ritonavir, read-out: IC50 value of docetaxel): 8.8 nM
- IC50 ([1]; DU-145, DU-145 DOC10, 10 μM ritonavir, read-out: IC50 value of docetaxel): 2.8 nM
- IC50 ([1]; DU-145, DU-145 DOC10, without elacridar (elacridar experiment), read-out: IC50 value of docetaxel): 11.7 nM
- IC50 ([1]; DU-145, DU-145 DOC10, without ritonavir, read-out: IC50 value of docetaxel): 9.5 nM
- fold decrease of relative IC50 value of docetaxel ([2]; 31.6 μM ritonavir, cell line not given): 84 fold
- resistance to docetaxel, fold ([2]; 3D setup (clonogenic assay), 22Rv1 DOC8 vs parental): 42 fold
- Relative Resist to docetaxel ([2]; 22Rv1 DOC8, 0.3 μM elacridar): 1.1
- Relative Resist to docetaxel ([2]; 22Rv1 DOC8, 1 μM elacridar): 1
- fold lower IC50 value (increase in sensitivity) ([2]; 22Rv1 DOC8, 32 μM ritonavir, cabazitaxel experiment (FIG. 12)): 14 fold
- fold lower IC50 value (increase in sensitivity to docetaxel) ([2]; 22Rv1 DOC8, 0.3 and 1 μM elacridar): 100 fold
- Relative Resist to docetaxel ([2]; 22Rv1 DOC8 without elacridar): 103
- IC50 ([2]; 22Rv1, 31.6 μM ritonavir, cell line not given, read-out: relative IC50 value of docetaxel): 2.6 nM
- IC50 ([2]; 22Rv1, 22Rv1 DOC8, 0.3 μM elacridar, read-out: IC50 value of docetaxel): 1.4 nM
- IC50 ([2]; 22Rv1, 22Rv1 DOC8, 1 μM elacridar, read-out: IC50 value of docetaxel): 1.3 nM
- IC50 ([2]; 22Rv1, 22Rv1 DOC8, 32 μM ritonavir, read-out: Docetaxel IC50 value): 3 nM
- IC50 ([2]; 22Rv1, 22Rv1 DOC8, without elacridar (elacridar experiment), read-out: IC50 value of docetaxel): 134 nM
- IC50 ([2]; 22Rv1, 22Rv1 DOC8, without ritonavir, read-out: Docetaxel IC50 value): 202 nM
- IC50 ([2]; 22Rv1, without ritonavir, cell line not given, read-out: relative IC50 value of docetaxel): 219 nM
- resistance to docetaxel: fold increase in IC50 value compared to parental, untreated cells [6]: > 100 fold and 105 fold and 134 fold
- IC50 ([3]; DU-145, DU-145, 0.3 μM elacridar, read-out: IC50 value of docetaxel): 1.1 nM
- IC50 ([3]; DU-145, DU-145, 1 μM elacridar, read-out: IC50 value of docetaxel): 1.1 nM
- IC50 ([3]; DU-145, DU-145, 1 μM ritonavir, read-out: IC50 value of docetaxel): 1.8 nM
- IC50 ([3]; DU-145, DU-145, 10 μM ritonavir, read-out: IC50 value of docetaxel): 1.7 nM
- IC50 ([3]; DU-145, DU-145, without elacridar (elacridar experiment), read-out: IC50 value of docetaxel): 1.1 nM
- IC50 ([3]; DU-145, DU-145, without ritonavir, read-out: IC50 value of docetaxel): 2.9 nM

SMILES: COc1cc2c(cc1OC)CN(CCc1ccc(NC(=O)c3cccc4c(=O)c5cccc(OC)c5[nH]c34)cc1)CC2 [elacridar]
- reversal of docetaxel resistance ([1]; DU-145 DOC10, by elacridar): reverses docetaxel resistance
- reversal of docetaxel resistance ([2]; 22Rv1 DOC8, by elacridar): reverses docetaxel resistance
